Reference: patent US8623661B2, “Iron chelating agent, method for producing same, method for determining amount of iron ions and method for trapping iron ions” (National University Corporation Asahikawa Medical College, priority 2008, dated 2014)

Legend:
[1] = system: iron nitrilotriacetate complex (Fe-NTA); assay: Evaluation B: chelating ability with iron, absorbance after adding chelating agent to iron nitrilotriacetate complex (Fe-NTA) solution; assay type: binding; settings: for [B] absorbance after addition of iron chelating agent / [B]-[A]: 470 nm; for [B]-[A]: minus blank
Method: Evaluation was carried out by the following evaluation method B as to whether the iron chelating agent according to Example 1 had chelating ability with iron.
An iron chelating agent solution (Fe-Ser•Na (50 mM)) having an iron chelating agent concentration of 50 mM was prepared in the same manner as the preparation method of the iron chelating agent solution in evaluation method A of the iron chelating agent.
Ferric chloride-6 hydrate FeCl3.6H2O (MW270.30) crystals were dissolved in Milli-Q water to prepare an 80 mM solution (A liquid). Meanwhile, 160 mM of nitrilotriacetic acid solution (B liquid) was prepared by dissolving crystals of the free salt of NTA (191.14) in 6N hydrochloric acid. 10 mL of A liquid and 10 mL of B liquid was taken in a beaker, and sodium hydrogen carbonate NaHCO3 crystals were added bit by bit while stirring slowly. When gas generation was suppressed and the solution changed to a dark green color, the addition of NaHCO3 was completed. Finally, iron nitrilotriacetate complex solution “Fe-NTA solution (20 mM)” having an iron ion concentration of 20 mM made up to 40 mL was prepared.
Further, 1×D-PBS (pH 7.2) was added to Fe-NTA solution (20 mM) to prepare an iron nitrilotriacetate complex solution having a concentration of iron ions of 2 mM (“Fe-NTA solution (2 mM)”).
Iron nitrilotriacetate complex solution [Fe-NTA solution (20 mM), Fe-NTA solution (2 mM)], and 1×D-PBS (pH 7.2) were mixed at the ratios shown in Tables 3 to 4, the absorbance of the mixture (wavelength 470 nm) was measured by using a spectrophotometer (trade name “NanoDrop ND-1000 Full-spectrum UV/Vis Spectrophotometer”, manufactured by SCRUM Corporation, UV-Vis Module, Measure), and the absorbance of blank ([A] in Tables 3 to 4) was determined. Then, 158 μl of Fe-Ser•Na (50 mM) was added to the mixture, the absorbance (wavelength 470 nm) was measured as described above, and the absorbance after the addition of the iron chelating agent according to Examples ([B] in Tables 3 to 4) was determined.

[2] = system: iron citrate complex ammonium salt (FAC); assay: Evaluation A: chelating ability with iron, absorbance after adding chelating agent to iron citrate complex ammonium salt (FAC) solution; assay type: binding; settings: for [B] absorbance after addition of iron chelating agent / [B]-[A]: 470 nm; for [B]-[A]: minus blank
Method: Evaluation was carried out by the following evaluation method A as to whether the iron chelating agent according to Example 1 had chelating ability with iron.
335 mg of the iron chelating agent (MW:209.2) according to Example 1 was added to a 50 mL conical tube, 15 mL of Dulbecco's phosphate buffered saline (pH 7.2;1×D-PBS) was added thereto, 70 mg of sodium hydroxide (MW:40.0) crystal was added thereto, followed by vigorously stirring (shaking) for 10 minutes, and centrifugation (1000 rpm, flashing) was carried out before the lid was opened. Then, 16.75 mL of 1×D-PBS (pH 7.2) was added thereto, and an iron chelating agent solution was prepared having a total amount of 31.75 mL.
Further, 1×D-PBS (pH 7.2) was added to FAC solution (20 mM) to prepare an iron citrate complex ammonium salt solution having a concentration of iron ions of 2 mM (“FAC solution (2 mM)”).
Iron citrate complex ammonium salt solution [FAC solution (20 mM), FAC solution (2 mM)]”, and 1×D-PBS (pH 7.2) were mixed at the ratios shown in Tables 1 to 2, the absorbance of the mixture (wavelength 470 nm) was measured by using a spectrophotometer (trade name “NanoDrop ND-1000 Full-spectrum UV/Vis Spectrophotometer”, manufactured by SCRUM Corporation, UV-Vis Module, Measure), and the absorbance of blank ([A] in Tables 1 to 2) was determined. Then, 158 μL of Fe-Ser•Na (50 mM) was added to the mixture, the absorbance (wavelength 470 nm) was measured as described above, and the absorbance after addition of iron chelating agent according to Examples ([B] in Tables 1 to 2) was determined.

[3] = Fe-NTA solution (2 mM) 0 μl + 1xD-PBS 160 μl + Fe-Ser•Na (50 mM) 158 μl
[4] = Fe-NTA solution (2 mM) 10 μl + 1xD-PBS 150 μl + Fe-Ser•Na (50 mM) 158 μl
[5] = Fe-NTA solution (2 mM) 20 μl + 1xD-PBS 140 μl + Fe-Ser•Na (50 mM) 158 μl
[6] = Fe-NTA solution (2 mM) 40 μl + 1xD-PBS 120 μl + Fe-Ser•Na (50 mM) 158 μl
[7] = Fe-NTA solution (2 mM) 80 μl + 1xD-PBS 80 μl + Fe-Ser•Na (50 mM) 158 μl
[8] = Fe-NTA solution (2 mM) 160 μl + 1xD-PBS 0 μl + Fe-Ser•Na (50 mM) 158 μl
[9] = Fe-NTA solution (20 mM) 0 μl + 1xD-PBS 160 μl + Fe-Ser•Na (50 mM) 158 μl
[10] = Fe-NTA solution (20 mM) 10 μl + 1xD-PBS 150 μl + Fe-Ser•Na (50 mM) 158 μl
[11] = Fe-NTA solution (20 mM) 20 μl + 1xD-PBS 140 μl + Fe-Ser•Na (50 mM) 158 μl
[12] = Fe-NTA solution (20 mM) 40 μl + 1xD-PBS 120 μl + Fe-Ser•Na (50 mM) 158 μl
[13] = Fe-NTA solution (20 mM) 80 μl + 1xD-PBS 80 μl + Fe-Ser•Na (50 mM) 158 μl
[14] = Fe-NTA solution (20 mM) 160 μl + 1xD-PBS 0 μl + Fe-Ser•Na (50 mM) 158 μl
[15] = FAC solution (2 mM) 0 μl + 1xD-PBS 160 μl + Fe-Ser•Na (50 mM) 158 μl
[16] = FAC solution (2 mM) 10 μl + 1xD-PBS 150 μl + Fe-Ser•Na (50 mM) 158 μl
[17] = FAC solution (2 mM) 20 μl + 1xD-PBS 140 μl + Fe-Ser•Na (50 mM) 158 μl
[18] = FAC solution (2 mM) 40 μl + 1xD-PBS 120 μl + Fe-Ser•Na (50 mM) 158 μl
[19] = FAC solution (2 mM) 80 μl + 1xD-PBS 80 μl + Fe-Ser•Na (50 mM) 158 μl
[20] = FAC solution (2 mM) 160 μl + 1xD-PBS 0 μl + Fe-Ser•Na (50 mM) 158 μl
[21] = FAC solution (20 mM) 0 μl + 1xD-PBS 160 μl + Fe-Ser•Na (50 mM) 158 μl
[22] = FAC solution (20 mM) 10 μl + 1xD-PBS 150 μl + Fe-Ser•Na (50 mM) 158 μl
[23] = FAC solution (20 mM) 20 μl + 1xD-PBS 140 μl + Fe-Ser•Na (50 mM) 158 μl
[24] = FAC solution (20 mM) 40 μl + 1xD-PBS 120 μl + Fe-Ser•Na (50 mM) 158 μl
[25] = FAC solution (20 mM) 80 μl + 1xD-PBS 80 μl + Fe-Ser•Na (50 mM) 158 μl
[26] = FAC solution (20 mM) 160 μl + 1xD-PBS 0 μl + Fe-Ser•Na (50 mM) 158 μl

O=C(O)C(CO)NCc1ccccc1O (stereo not shown) [Example 1, o-[(1-carboxy-2-hydroxyethyl)-amino-methyl]-phenol]
[B] absorbance after addition of iron chelating agent [1, 3]: 0.011 | [B]-[A] [1, 3]: 0.007 | [B] absorbance after addition of iron chelating agent [1, 4]: 0.017 | [B]-[A] [1, 4]: 0.014 | [B] absorbance after addition of iron chelating agent [1, 5]: 0.026 | [B]-[A] [1, 5]: 0.023 | [B] absorbance after addition of iron chelating agent [1, 6]: 0.041 | [B]-[A] [1, 6]: 0.036 | [B] absorbance after addition of iron chelating agent [1, 7]: 0.075 | [B]-[A] [1, 7]: 0.071 | [B] absorbance after addition of iron chelating agent [1, 8]: 0.135 | [B]-[A] [1, 8]: 0.125 | [B] absorbance after addition of iron chelating agent [1, 9]: 0.008 | [B]-[A] [1, 9]: 0.005 | [B] absorbance after addition of iron chelating agent [1, 10]: 0.081 | [B]-[A] [1, 10]: 0.077 | [B] absorbance after addition of iron chelating agent [1, 11]: 0.163 | [B]-[A] [1, 11]: 0.153 | [B] absorbance after addition of iron chelating agent [1, 12]: 0.322 | [B]-[A] [1, 12]: 0.296 | [B] absorbance after addition of iron chelating agent [1, 13]: 0.731 | [B]-[A] [1, 13]: 0.676 | [B] absorbance after addition of iron chelating agent [1, 14]: 1.244 | [B]-[A] [1, 14]: 1.132 | capture of iron ions from an iron nitrilotriacetate complex ([1]; conclusion from Tables 3 to 4): iron ions can be captured | chelating ability with iron ([1]; conclusion from Tables 3 to 4): has chelating ability with iron | [B] absorbance after addition of iron chelating agent [2, 15]: 0.015 | [B]-[A] [2, 15]: 0.012 | [B] absorbance after addition of iron chelating agent [2, 16]: 0.027 | [B]-[A] [2, 16]: 0.023 | [B] absorbance after addition of iron chelating agent [2, 17]: 0.040 | [B]-[A] [2, 17]: 0.035 | [B] absorbance after addition of iron chelating agent [2, 18]: 0.055 | [B]-[A] [2, 18]: 0.046 | [B] absorbance after addition of iron chelating agent [2, 19]: 0.104 | [B]-[A] [2, 19]: 0.096 | [B] absorbance after addition of iron chelating agent [2, 20]: 1.181 | [B]-[A] [2, 20]: 0.169 | [B] absorbance after addition of iron chelating agent [2, 21]: 0.010 | [B]-[A] [2, 21]: 0.010 | [B] absorbance after addition of iron chelating agent [2, 22]: 0.109 | [B]-[A] [2, 22]: 0.104 | [B] absorbance after addition of iron chelating agent [2, 23]: 0.208 | [B]-[A] [2, 23]: 0.199 | [B] absorbance after addition of iron chelating agent [2, 24]: 0.405 | [B]-[A] [2, 24]: 0.390 | [B] absorbance after addition of iron chelating agent [2, 25]: 0.800 | [B]-[A] [2, 25]: 0.771 | [B] absorbance after addition of iron chelating agent [2, 26]: 1.368 | [B]-[A] [2, 26]: 1.311 | capture of iron ions from the iron citrate complex ([2]; conclusion from Tables 1 to 2): iron ions can be captured | chelating ability with iron ([2]; conclusion from Tables 1 to 2): has chelating ability with iron
